For one assay, the target named is T1, C-RAF (Homo sapiens, UniProt P04049, Y340E/Y341E).
T1 construct: His tag (implied by nickel chromatography) (cleaved yes); StrepII tag (cleaved yes); made in house; host or cells: Sf9 insect cells (baculovirus), CRAF and h14-3-3 zeta co-expressed; MEK1 substrate from E. coli
Description: In vitro Raf activity determination (Alpha Screen, biotinylated kinase-dead MEK1 substrate), C-Raf. Format: biochemical. Conditions: c-Raf approximately 4 nM; ATP 1 μM; pre-incubation 60 minutes; reaction 1 hour at room temperature. The method in brief: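 AlphaScreen read-out of MEK phosphorylation using an anti-phospho-MEK1/2 antibody after a 1 hour room-temperature reaction at 1 μM ATP. Enzyme: approximately 4 nM Sf9-expressed full-length activated C-Raf (Y340E/Y341E, with 14-3-3ζ) on approximately 10 nM biotinylated K97R MEK1, after 60 min compound preincubation. IC50 by non-linear fit.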

For a further assay, the target named is T2, b-Raf (V600E) (Homo sapiens, UniProt P15056, V600E).
T2 construct: made in house
T2 sequence (P15056 whole entry V600E): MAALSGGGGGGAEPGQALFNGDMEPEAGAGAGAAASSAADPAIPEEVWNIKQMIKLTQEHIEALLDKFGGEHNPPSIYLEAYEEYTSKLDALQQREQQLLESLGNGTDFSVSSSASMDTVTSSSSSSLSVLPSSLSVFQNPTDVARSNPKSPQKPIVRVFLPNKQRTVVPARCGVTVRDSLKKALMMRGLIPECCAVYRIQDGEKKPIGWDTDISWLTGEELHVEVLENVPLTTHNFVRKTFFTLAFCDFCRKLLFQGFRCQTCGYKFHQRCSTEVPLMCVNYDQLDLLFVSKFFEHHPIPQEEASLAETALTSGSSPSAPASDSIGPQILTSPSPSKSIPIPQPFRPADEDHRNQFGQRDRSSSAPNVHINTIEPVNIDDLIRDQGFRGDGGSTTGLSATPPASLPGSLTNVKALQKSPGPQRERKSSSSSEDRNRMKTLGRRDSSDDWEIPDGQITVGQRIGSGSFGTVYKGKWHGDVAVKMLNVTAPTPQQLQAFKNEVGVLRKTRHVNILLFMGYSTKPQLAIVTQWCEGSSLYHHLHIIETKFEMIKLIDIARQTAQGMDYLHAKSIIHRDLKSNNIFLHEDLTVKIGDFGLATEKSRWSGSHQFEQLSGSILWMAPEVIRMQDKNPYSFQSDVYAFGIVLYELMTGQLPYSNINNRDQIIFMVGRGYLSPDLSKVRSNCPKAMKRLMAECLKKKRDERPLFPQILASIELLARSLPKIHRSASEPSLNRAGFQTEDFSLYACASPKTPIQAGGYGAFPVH
Description: In vitro Raf activity determination (Alpha Screen, biotinylated kinase-dead MEK1 substrate), B-Raf. Format: biochemical. As to conditions: b-Raf (V600E) approximately 4 pM; ATP 10 μM; pre-incubation 60 minutes; reaction 3 hours at room temperature. The gist of the method: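 IC50 from non-linear regression of AlphaScreen phospho-MEK signal (anti-p-MEK1/2 antibody). b-Raf(V600E), about 4 pM, phosphorylated ~10 nM biotinylated K97R MEK1 with 10 μM ATP for 3 h at room temperature after 60 min compound pre-incubation; buffer pH 7.5 Tris, 15 mM MgCl2, 1 mM DTT.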

pIC50: −log10 of the molar value.

T1 sequence (P04049 whole entry Y340E/Y341E): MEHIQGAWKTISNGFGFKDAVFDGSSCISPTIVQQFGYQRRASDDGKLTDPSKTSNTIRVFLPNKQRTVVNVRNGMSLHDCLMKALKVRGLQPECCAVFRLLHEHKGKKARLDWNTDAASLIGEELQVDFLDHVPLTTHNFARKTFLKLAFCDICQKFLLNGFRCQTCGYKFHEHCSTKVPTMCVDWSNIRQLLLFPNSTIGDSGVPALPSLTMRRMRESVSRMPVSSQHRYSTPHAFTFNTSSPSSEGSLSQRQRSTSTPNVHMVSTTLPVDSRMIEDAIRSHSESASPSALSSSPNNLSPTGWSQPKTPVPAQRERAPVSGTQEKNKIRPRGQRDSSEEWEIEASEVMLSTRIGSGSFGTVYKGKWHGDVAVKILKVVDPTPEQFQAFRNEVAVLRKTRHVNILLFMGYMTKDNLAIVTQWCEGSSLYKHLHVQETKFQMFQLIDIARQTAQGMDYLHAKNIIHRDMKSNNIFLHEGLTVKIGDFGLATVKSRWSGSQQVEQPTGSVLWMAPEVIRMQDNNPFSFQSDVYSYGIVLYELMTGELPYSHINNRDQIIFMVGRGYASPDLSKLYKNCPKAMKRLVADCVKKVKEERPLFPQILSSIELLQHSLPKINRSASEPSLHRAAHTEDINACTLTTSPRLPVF
T1 sequence (P63104 whole entry partner): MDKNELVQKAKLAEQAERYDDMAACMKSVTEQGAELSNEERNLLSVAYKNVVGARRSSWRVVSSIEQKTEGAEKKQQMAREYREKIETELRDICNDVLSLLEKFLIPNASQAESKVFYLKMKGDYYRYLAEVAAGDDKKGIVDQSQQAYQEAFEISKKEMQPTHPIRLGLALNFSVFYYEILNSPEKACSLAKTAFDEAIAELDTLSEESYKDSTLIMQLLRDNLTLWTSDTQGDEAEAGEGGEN

In the case of `Cc1ccc(NC(=O)c2cccc(C(F)(F)F)c2)cc1-c1cc(C#N)c[nH]c1=O` [Example 14, N-(3-(5-cyano-2-oxo-1,2-dihydropyridin-3-yl)-4-methylphenyl)-3-(trifluoromethyl) benzamide], the pIC50 – broadly, −log10 of the IC50, conventionally taken in molar units – is 9.21 against C-RAF and 7.95 on b-Raf (V600E).

On to `CCn1cc(C(=O)Nc2ccc(C)c(-c3cnc(N4CCNCC4)c(C#N)c3)c2)cc(C(F)(F)F)c1=O` [Example 162, N-(3-(5-cyano-6-(piperazin-1-yl)pyridin-3-yl)-4-methylphenyl)-1-ethyl-6-oxo-5-(trifluoromethyl)-1,6-dihydropyridine-3-carboxamide], for which the pIC50 against C-RAF is 9.28; against b-Raf (V600E), 8.60.

As for `Cc1ccc(NC(=O)c2cc(C(F)(F)F)ccn2)cc1-c1cnc(N2CCOCC2)c(C#N)c1` [Example 222, N-(3-(5-cyano-6-morpholinopyridin-3-yl)-4-methylphenyl)-4-(trifluoromethyl) picolinamide], the results for the negative-log IC50 (pIC50) against C-RAF and against b-Raf (V600E) were 9.66 and 9.00, respectively.

Consider `COc1ncc(-c2cc(NC(=O)c3ccnc(C(C)(C)C#N)c3)ccc2C)cc1C#N` [Example 36, N-(3-(5-cyano-6-methoxypyridin-3-yl)-4-methylphenyl)-2-(2-cyanopropan-2-yl)isonicotinamide], for which the pIC50 was 9.32 against C-RAF and 8.56 against b-Raf (V600E).

Take `CCn1cc(C(=O)Nc2cnc(C)c(-c3cnc(N(C)C)c(C#N)c3)c2)c(C)n1` [Example 263, N-(5′-cyano-6′-(dimethylamino)-2-methyl-[3,3′-bipyridin]-5-yl)-1-ethyl-3-methyl-1H-pyrazole-4-carboxamide]: the values for the pIC50 at C-RAF and against b-Raf (V600E) were 7.26 and 6.05, respectively.

Take `Cc1ncc(NC(=O)c2ccnc(C(C)C)c2)cc1-c1cnc(N2CCOCC2)c(C#N)c1` [Example 133, N-(5′-cyano-2-methyl-6′-morpholino-[3,3′-bipyridin]-5-yl)-2-isopropyl-isonicotinamide]: the pIC50 was 9.48 on C-RAF and 8.69 on b-Raf (V600E).

`Cc1ncc(NC(=O)c2ccnc(C(C)(C)C#N)c2)cc1-c1cnc(N2CCC2)c(C#N)c1` [Example 76, N-(6′-(azetidin-1-yl)-5′-cyano-2-methyl-[3,3′-bipyridin]-5-yl)-2-(2-cyanopropan-2-yl)isonicotinamide]: the negative logarithm of the IC50 (pIC50) against C-RAF was 8.81; on b-Raf (V600E), 8.05.

`Cc1ccc(NC(=O)c2ccnc(C(F)F)c2)cc1-c1cnc(NC2CCOCC2)c(C#N)c1` [Example 169, N-(3-(5-cyano-6-((tetrahydro-2H-pyran-4-yl)amino)pyridin-3-yl)-4-methylphenyl)-2-(difluoromethyl) isonicotinamide]: the figures for the pIC50 at C-RAF and against b-Raf (V600E) were 9.81 and 9.29, respectively.

For the molecule `Cc1ncc(NC(=O)c2ccnc(C(F)(F)F)c2)cc1-c1cnc(C2CCOCC2)c(C#N)c1` [Example 127, N-(5′-cyano-2-methyl-6′-(tetrahydro-2H-pyran-4-yl)-[3,3′-bipyridin]-5-yl)-2-(trifluoromethyl) isonicotinamide], the figures for the pIC50 on C-RAF and against b-Raf (V600E) were 9.33 and 8.51, respectively.

`COc1ncc(-c2cc(NC(=O)c3cccc(C(F)(F)F)c3)ccc2C)cc1C#N` [Example 37, N-(3-(5-cyano-6-methoxypyridin-3-yl)-4-methylphenyl)-3-(trifluoromethyl) benzamide]: the results for the pIC50 on C-RAF and against b-Raf (V600E) were 9.80 and 8.88, respectively.

On to `Cc1ccc(NC(=O)c2ccnc(C(F)(F)F)c2)cc1-c1cnc(NC(C)C)c(C#N)c1` [Example 22, N-(3-(5-cyano-6-(isopropylamino)pyridin-3-yl)-4-methylphenyl)-2-(trifluoromethyl) isonicotinamide], for which the pIC50 on C-RAF was 9.50; against b-Raf (V600E), 8.90.

With `Cc1ncc(NC(=O)c2ccnc(C(F)(F)F)c2)cc1-c1cnc(OC2COC2)c(C#N)c1` [Example 95, N-(5′-cyano-2-methyl-6′-(oxetan-3-yloxy)-[3,3′-bipyridin]-5-yl)-2-(trifluoromethyl) isonicotinamide], the pIC50 against C-RAF is 8.63; at b-Raf (V600E) it was 7.89.

The record behind these values is patent US10392404B2, “Compounds and compositions as kinase inhibitors” (NOVARTIS AG, priority 2014, dated 2019).
